According to the supplement of paper PMC10307832:

Experiments:
Assay in all cases: relative viability (nuclei count vs DMSO), 5 days (fraction); higher = more cells survive
[1] = compound: COc1cc(-c2nn([C@H]3CC[C@H](N4CCN(C(C)=O)CC4)CC3)c3ncnc(N)c23)ccc1NC(=O)c1cc2ccccc2n1C + COc1cccc2cc(-c3nc([C@H]4CC[C@H](C(=O)O)CC4)n4ncnc(N)c34)[nH]c12 [OSI-027] (partner 0.5 µM)
Summary of the method: (§1)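 Relative viability is defined as nuclei in treated wells over nuclei in vehicle wells. Duplicate plates were run and medians reported. Lung cancer cell lines in 1536-well plates were dosed by pin tool one day after seeding, with one drug or with a fixed anchor-drug dose plus five library-drug doses (not always all listed) in √10 steps, and nuclei were counted after 5 days.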

[2] = compound: COc1cc(-c2nn([C@H]3CC[C@H](N4CCN(C(C)=O)CC4)CC3)c3ncnc(N)c23)ccc1NC(=O)c1cc2ccccc2n1C + Nc1ncn([C@H]2C[C@H](O)[C@@H](CO)O2)c(=O)n1 [Decitabine] (partner 2 µM)
Summary of the method: as §1

[3] = compound: COc1cc(-c2nn([C@H]3CC[C@H](N4CCN(C(C)=O)CC4)CC3)c3ncnc(N)c23)ccc1NC(=O)c1cc2ccccc2n1C + C[C@@H](Oc1cc(-c2cnn(C3CCNCC3)c2)cnc1N)c1c(Cl)ccc(F)c1Cl [Crizotinib] (partner 1 µM)
Summary of the method: as §1

[4] = compound: COc1cc(-c2nn([C@H]3CC[C@H](N4CCN(C(C)=O)CC4)CC3)c3ncnc(N)c23)ccc1NC(=O)c1cc2ccccc2n1C + Nc1nc2[nH]cc(CCc3ccc(C(=O)N[C@@H](CCC(=O)O)C(=O)O)cc3)c2c(=O)[nH]1 [Pemetrexed] (partner 0.2 µM)
Summary of the method: as §1

[5] = compound: COc1cc(-c2nn([C@H]3CC[C@H](N4CCN(C(C)=O)CC4)CC3)c3ncnc(N)c23)ccc1NC(=O)c1cc2ccccc2n1C + CC1(C)CCC(c2ccc(Cl)cc2)=C(CN2CCN(c3ccc(C(=O)NS(=O)(=O)c4ccc(N[C@H](CCN5CCOCC5)CSc5ccccc5)c(S(=O)(=O)C(F)(F)F)c4)cc3)CC2)C1 [Navitoclax] (partner 0.5 µM)
Summary of the method: as §1

Cell Line | relative viability ([1]; first compound 0.0128 µM) | relative viability ([1]; first compound 0.128 µM) | relative viability ([1]; first compound 1.28 µM) | relative viability ([2]; first compound 0.0128 µM) | relative viability ([2]; first compound 0.04048 µM) | relative viability ([2]; first compound 0.128 µM) | relative viability ([2]; first compound 1.28 µM) | relative viability ([3]; first compound 0.0128 µM) | relative viability ([3]; first compound 0.04048 µM) | relative viability ([3]; first compound 0.128 µM) | relative viability ([3]; first compound 1.28 µM) | relative viability ([4]; first compound 0.0128 µM) | relative viability ([4]; first compound 0.04048 µM) | relative viability ([4]; first compound 0.128 µM) | relative viability ([4]; first compound 1.28 µM) | relative viability ([5]; first compound 0.0128 µM) | relative viability ([5]; first compound 0.04048 µM) | relative viability ([5]; first compound 0.128 µM) | relative viability ([5]; first compound 1.28 µM) | relative viability ([1]; first compound 0.04048 µM)
A-427 | 0.497 | 0.456 | 0.45 | 0.529 | 0.589 | 0.571 | 0.666 | 1.04 | 0.771 | 0.872 | 0.803 | 0.972 | 1.07 | 0.906 | 0.93 | 1.06 | 0.763 | 1.04 | 0.795 | –
NCI-H1792 | 0.736 | 0.689 | 0.558 | 0.566 | 0.504 | 0.532 | 0.598 | 0.958 | 1.01 | 0.88 | 0.896 | 0.883 | 0.913 | 0.797 | 0.729 | 0.611 | 0.499 | 0.609 | 0.624 | 0.523
LCLC-97TM1 | 0.596 | 0.489 | 0.586 | 0.295 | 0.224 | 0.257 | 0.235 | 0.364 | 0.409 | 0.359 | 0.519 | 0.182 | 0.185 | 0.171 | 0.19 | 0.464 | 0.388 | 0.385 | 0.389 | 0.243
PC-3 [JPC-3] | 0.817 | 0.77 | 0.771 | 0.923 | 0.894 | 0.847 | 0.865 | 1.05 | 1.09 | 0.968 | 1.08 | 0.971 | 1.15 | 1.02 | 1.15 | 0.904 | 0.803 | 0.776 | 0.86 | 0.817
BEN | 0.27 | 0.311 | 0.291 | 0.571 | 0.733 | 0.708 | 0.582 | 0.8 | 0.996 | 0.756 | 0.576 | 0.686 | 0.814 | 0.871 | 0.664 | 0.062 | 0.261 | 0.0628 | 0.0568 | 0.296
NCI-H1666 | 0.795 | 0.764 | 0.784 | 0.71 | 0.673 | 0.758 | 0.66 | 0.909 | 0.904 | 0.97 | 0.827 | 0.881 | 0.803 | 0.84 | 0.847 | 0.883 | 0.805 | 0.806 | 0.955 | 0.789
LC-2-ad | 0.932 | 0.864 | 0.691 | 0.818 | 0.778 | 0.723 | 0.854 | 0.443 | 0.399 | 0.414 | 0.409 | 0.304 | 0.277 | 0.243 | 0.275 | 0.509 | 0.429 | 0.473 | 0.389 | 0.776
SK-LU-1 | 0.4 | 0.284 | 0.206 | 0.577 | 0.557 | 0.559 | 0.481 | 1 | 0.975 | 0.658 | 0.506 | 1.06 | 1.03 | 0.936 | 0.686 | 0.95 | 0.801 | 0.544 | 0.567 | 0.291
ChaGo-K-1 | 0.607 | 0.519 | 0.464 | 0.493 | 0.513 | 0.497 | 0.508 | 1.17 | 1.13 | 1.03 | 0.882 | 0.258 | 0.26 | 0.252 | 0.237 | 0.958 | 1.05 | 0.881 | 0.986 | 0.532
COR-L 105 | 0.59 | 0.636 | 0.343 | 0.645 | 0.724 | 0.653 | 0.559 | 0.771 | 0.864 | 0.594 | 0.678 | 1.08 | 1.11 | 1.1 | 0.836 | 0.728 | 0.813 | 0.78 | 0.456 | 0.799
NCI-H1975 | 0.676 | 0.611 | 0.277 | 0.406 | 0.33 | 0.376 | 0.235 | 0.869 | 1.18 | 0.966 | 0.424 | 0.318 | 0.29 | 0.297 | 0.255 | 1.11 | 1.17 | 1.08 | 0.697 | 0.669
NCI-H1993 | 0.52 | 0.552 | 0.431 | 0.632 | 0.575 | 0.681 | 0.617 | 0.925 | 0.902 | 0.803 | 0.645 | 0.684 | 0.543 | 0.598 | 0.599 | 0.898 | 0.886 | 0.873 | 0.709 | 0.575
RERF-LC-KJ | 0.634 | 0.581 | 0.569 | 0.716 | 0.759 | 0.737 | 0.845 | 0.897 | 0.914 | 0.742 | 0.846 | 0.489 | 0.494 | 0.47 | 0.46 | 0.829 | 1.09 | 0.94 | 0.837 | 0.536
NCI-H23 | 0.646 | 0.578 | 0.415 | 0.283 | 0.291 | 0.291 | 0.298 | 0.534 | 0.533 | 0.458 | 0.376 | 0.66 | 0.459 | 0.688 | 0.618 | 0.825 | 0.549 | 0.716 | 0.77 | 0.368
HCC-366 | 0.803 | 0.882 | 0.772 | 0.379 | 0.344 | 0.351 | 0.306 | 0.692 | 0.679 | 0.546 | 0.281 | 0.141 | 0.24 | 0.208 | 0.232 | 1.09 | 1 | 1.05 | 0.821 | 0.347
